Test results as given in US8501214B2, “Hydrophilic foam and pharmaceutical dosage form employing the same” (priority 2007, dated 2013).
Where two headings read alike, the source gives them in different places.

Assays:
[1] = Solvent/water partition coefficient analysis (1-Octanol/water); assay type: physicochemical; conditions: for logP: logarithm of the ratio of 1-Octanol to water, read-out: Partition coefficient [log Poct/wat]
Experimental: Solvent/water partition coefficient analysis was conducted to determine the solvent/water partition coefficient. Various solvent were used in the experiments; yet, only the 1-Octanol/water partition coefficients of the active agents described herein above are summarized in Table 4. The 1-Octanol/water partition coefficient is the logarithm of the ratio of 1-Octanol to water and can be expressed as [log Poct/wat].

[2] = Transmembrane penetration analysis; assay type: in vitro ADME, swine; conditions: for True Value Concentration (completely penetrated active agent): 0.25 mL gel admixed with 5.5 mL saline; for Penetration Ratio: relative to true value
Excerpt: The solution was admixed with the aquagel or O/W gel described hereinabove to afford an active agent-containing gel. In the comparative example, commercially available vaseline ointment was admixed with heptane to form vaseline gel, and the solution was also admixed with the vaseline gel.
In the transmembrane penetration analysis, swine endometrium was used as the membrane. The swine endometrium of suitable size was disposed between an upper container and a lower container. The lower container was filled with physiologic saline and debubbled. […] The pipetted sample was analyzed with HPLC-PDA system.
In addition, about 0.25 mL of each gel was admixed with about 5.5 mL of saline. The admixture was extracted, filtered through a filter film (0.45 μm) and then analyzes by HPLE-PDA. The results (referred to as the “true value” hereinafter) thus obtained were regarded as the amount of a completely penetrated active agent present in the lower container.

[3] = Comparative Example D (vaseline gel)
[4] = Working Example 3 (aqua gel), 1 hr
[5] = Working Example 3 (aqua gel), 3 hr
[6] = Working Example 3 (aqua gel), 5 hr
[7] = Working Example 3 (aqua gel), 21 hr
[8] = Working Example 3 (aqua gel), 24 hr
[9] = Working Example 4 (O/W gel), 21 hr
[10] = Working Example 4 (O/W gel), 24 hr
[11] = Working Example 4 (O/W gel), 26 hr

Nc1nc2c(ncn2COCCO)c(=O)[nH]1 [Acyclovir (ACY), Acyclovir]
logP ([1]; 1-octanol/water): -1.58
True Value Concentration (completely penetrated active agent) [2, 3]: 0.1865 mg/mL
True Value Concentration (completely penetrated active agent) ([2]; Working Example 3 (aqua gel)): 0.09979 mg/mL
Concentration in lower container [2, 4]: 5970 ng/mL
Concentration in lower container [2, 5]: 21420 ng/mL
Concentration in lower container [2, 6]: 29640 ng/mL
Concentration in lower container [2, 7]: 62890 ng/mL
Concentration in lower container [2, 8]: 58630 ng/mL
True Value Concentration (completely penetrated active agent) ([2]; Working Example 4 (O/W gel)): 0.1375 mg/mL
Concentration in lower container [2, 9]: 2510 ng/mL
Concentration in lower container [2, 10]: 60500 ng/mL
Concentration in lower container [2, 11]: 83400 ng/mL

O=c1cc(-c2ccccc2)oc2cc(O)c(O)c(O)c12 [Baicalein]
1-Octanol/H2O ratio [1]: Insoluble in water

O=C(O)c1cc(O)c(O)c(O)c1 [Gallic acid]
1-Octanol/H2O ratio [1]: 1.859
logP [1]: 0.27

O=c1ccc2ccc3occc3c2o1 [Isopsoralen]
1-Octanol/H2O ratio [1]: 306.9
logP [1]: 2.49

Cc1ncc([N+](=O)[O-])n1CCO [Metronidazole (MTZ), Metronidazole]
logP ([1]; 1-octanol/water): 0.05
True Value Concentration (completely penetrated active agent) [2, 3]: 0.1563 mg/mL
Concentration in lower container ([2]; Comparative Example D (vaseline gel), 3 hr): 460 ng/mL
Concentration in lower container ([2]; Comparative Example D (vaseline gel), 5 hr): 590 ng/mL
Concentration in lower container ([2]; Comparative Example D (vaseline gel), 10.5 hr): 960 ng/mL
Concentration in lower container ([2]; Comparative Example D (vaseline gel), 24 hr): 1740 ng/mL
Concentration in lower container ([2]; Comparative Example D (vaseline gel), 26 hr): 1430 ng/mL
True Value Concentration (completely penetrated active agent) ([2]; Working Example 3 (aqua gel)): 0.09568 mg/mL
Concentration in lower container [2, 4]: 13200 ng/mL
Concentration in lower container [2, 5]: 31080 ng/mL
Concentration in lower container [2, 6]: 395900 ng/mL
Concentration in lower container [2, 7]: 635800 ng/mL
Concentration in lower container [2, 8]: 587100 ng/mL
Concentration in lower container ([2]; Working Example 3 (aqua gel), 26 hr): 595100 ng/mL
True Value Concentration (completely penetrated active agent) ([2]; Working Example 4 (O/W gel)): 0.1433 mg/mL
Concentration in lower container [2, 9]: 6510 ng/mL
Concentration in lower container [2, 10]: 61670 ng/mL
Concentration in lower container [2, 11]: 81070 ng/mL

Clc1ccc(COC(Cn2ccnc2)c2ccc(Cl)cc2Cl)c(Cl)c1 (centres unmarked) [Miconazole nitrate(MIC), Miconazole nitrate]
True Value Concentration (completely penetrated active agent) ([2]; Working Example 4 (O/W gel)): 0.1401 mg/mL
Concentration in lower container [2, 9]: 7060 ng/mL
Concentration in lower container [2, 10]: 60660 ng/mL
Concentration in lower container [2, 11]: 82720 ng/mL

C[C@@H]1[C@H](O)[C@@H](C)/C=C/C=C/CC/C=C/C=C/C=C/C=C/C(O[C@H]2O[C@H](C)[C@@H](O)[C@H](N)[C@@H]2O)CC2O[C@](O)(CC(O)C(O)CCC(O)CC(O)CC(O)CC(=O)O[C@H]1C)CC(O)C2C(=O)O (some centres unmarked) [Nystatin (NYS), Nystatin]
1-Octanol/H2O ratio [1]: 1.98
Partition coefficient [log Poct/wat] [1]: 0.30
True Value Concentration (completely penetrated active agent) ([2]; Working Example 4 (O/W gel)): 0.06448 mg/mL
Concentration in lower container [2, 9]: 1930 ng/mL
Penetration Ratio [2, 9]: 2.99%
Concentration in lower container [2, 10]: 20720 ng/mL
Penetration Ratio [2, 10]: 32.14%
Concentration in lower container [2, 11]: 30070 ng/mL
Penetration Ratio [2, 11]: 46.64%

CC(C)[C@]12O[C@H]1[C@@H]1O[C@]13[C@]1(O[C@H]1C[C@H]1C4=C(CC[C@@]13C)C(=O)OC4)[C@@H]2O [Triptolide]
1-Octanol/H2O ratio [1]: 54.13
logP [1]: 1.73
